Assay results published in US12612395B2, “Rocaglate derivatives and uses thereof” (TRUSTEES OF BOSTON UNIVERSITY, priority 2023, dated 2026).
Read-outs that look alike come from different tables or passages of the source.

Tests used:
GBM0308 CSCs = assay: Dose-response killing of GBM CSCs (PI/Hoechst, Celigo cytometer); type: cell-based
Source text: (§1) The inventors first evaluated a cohort of seven rocaglate translation inhibitors (1, 3-7, and 9, FIG. 1A and Table 1, compounds 2 and 8 were not tested due to unavailability). To assay for compounds that selectively affect GBM CSCs, the inventors employed the patient-derived tumor-initiating cell (TIC) cell line […] that forms neurospheres (consisting exclusively of tumor-initiating cells or CSCs) when cultured in neurobasal (NBE) medium. Upon exposure to serum and growth factor withdrawal, however, the cell line differentiates, acquires a flattened morphology, and forms a non-CSC population.^20 Thus, compounds can be tested in parallel to assess their effect on GBM CSCs vs. GBM non-CSCs as separate populations with a clean and robust response. This approach has been previously used to perform RNAi-based genetic screens to identify modulators of CSCs.^20 In this study, GBM0308 cells, cultured in stem cell conditions to form CSCs or in medium containing serum to induce differentiation into a non-CSC population, were treated in parallel with compounds at varying doses. Three days post-treatment, propidium iodide (PI) and Hoechst staining were performed and quantified using a Celigo image cytometer. Hoechst dye stained all […] nucleated cells, while PI exclusively stained dead cells. Cell viability and the percentage of cell death were then determined.
(§2) Cell Culture: Glioblastoma stem cell lines GBM0308, BT145, and BT112 were cultured in neurobasal (NBE medium) containing N-2 and B-27 supplements, EGF, bFGF, L-glutamine, and Penicillin-Streptomycin), as described previously.^19 Adherent GBM cells were cultured in serum-containing DMEM media (Invitrogen) supplemented with 10% fetal bovine serum (Corning Cellgro™). Cells were incubated at 37° C. and 5% CO2 to allow neurosphere formation. For seeding and subculturing, the neurospheres were gently trypsinized with 0.025% trypsin to form a single-cell suspension.
(§3) Dose-Response Testing in GBM Cells: Briefly, on day 1, cells were seeded in triplicate. For CSCs, 1500 cells/well were plated in a low attachment 96-well plate with NBE media and incubated for 3 days at 37° C. and 5% CO2 to allow the formation of neurospheres. For non-CSCs, 3000 cells/well were plated in a 96-well plate with DMEM media supplemented with 10% FBS. Similarly, the assay plates were also incubated for the same duration. Compound treatments started on day 4. Each compound was resuspended in DMSO and then diluted to different concentrations in media to a final concentration of DMSO less than 1%. The compounds were added at concentrations of 10, 3.3, 1.11, 0.37, 0.12, 0.041, 0.013, and 0.004 µM, respectively. DMSO-treated cells served as a control. After 72 h incubation with the compounds, fluorescent stains, propidium iodide, and Hoechst 33342 (Life Technologies, Carlsbad, CA), were used to stain the GBM cells to determine cell viability. A staining solution in 1×PBS was prepared by mixing PI and Hoechst 33342 to working concentrations of 2.5 μM and 20 μM, respectively. 20 μL of this staining solution was added per well, and plates were incubated at 37° C. and 5% CO2 for 60 min. After incubation, plates were read by Celigo imaging cytometer using an inbuilt Celigo application; Cell Viability (Dead+Total). For the viability measurement, the total number of neurospheres/cells and dead neurospheres/cells in each well were counted by the cytometer. The percentage of PI+ cells was normalized to DMSO and plotted against the drug concentration to calculate the EC50 with a four-parameter, variable-slope dose-response curve with an upper constraint of <100% dead cells and a lower constraint of =0% dead cells (GraphPad Prism v.10.0.0). For all dose response experiments, the experimental maximal efficacy (maximum observed % cell death) is reported. Relative EC50 values are reported for all compounds killing >50% of cells.

GBM0308 non-CSCs = assay: Dose-response killing of GBM non-CSCs (PI/Hoechst, Celigo cytometer); type: cell-based; conditions: for Emax / EC50: Homo sapiens; for Emax / Non-CSCs Max. observed efficacy (% dead cells): 72 h; for EC50: read-out: Non-CSC EC50 (μM)
Source text: as §1, §2, §3

[1] = Homo sapiens, 72 h, Table 7, cell line not given, read-out: CSC Max. observed efficacy (% dead cells)
[2] = Homo sapiens, Table 7, cell line not given, read-out: CSC EC50
[3] = Table 7, cell line not given, read-out: Non-CSC Max. observed efficacy (% dead cells)
[4] = Table 2, GBM0308 CSCs, 72 h, highest tested concentration 10 μM
[5] = Table 2, GBM0308 non-CSCs, highest tested concentration 10 μM
[6] = Homo sapiens, 72 h, read-out: CSCs EC50 (μM), Table 2, GBM0308 CSCs, 72 h treatment, relative EC50
[7] = Homo sapiens, 72 h, read-out: CSCs Max. observed efficacy (% dead cells), Table 2, GBM0308 CSCs, 72 h, highest tested concentration 10 μM
[8] = read-out: Non-CSCs Max. observed efficacy (% dead cells), Table 2, GBM0308 non-CSCs, highest tested concentration 10 μM
[9] = read-out: CSCs EC50, Table 2, GBM0308 CSCs, 72 h treatment, relative EC50
[10] = Homo sapiens, 72 h, read-out: CSC Max. observed efficacy (% dead cells), Table 7, cell line not given
[11] = Homo sapiens, read-out: CSC EC50 (μM), Table 7, cell line not given
[12] = read-out: Non-CSC Max. observed efficacy (% dead cells), Table 7, cell line not given
[13] = Table 1, GBM0308 CSCs, 72 h, up to 10 μM
[14] = Table 1, GBM0308 CSCs, 72 h treatment, relative EC50, given for compounds causing at least 50% cell death, read-out: CSCs EC50
[15] = Table 1, GBM0308 non-CSCs, up to 10 μM

COc1cc(OC)c2c(c1)O[C@@]1(c3ccc(Br)cc3)[C@H](c3ccccc3)[C@@H](C(=O)NS(=O)(=O)N(C)C)[C@@H](O)[C@@]21O [BUCMD790 (—), (1R,2R,3S,3aR,8bS)-3a-(4-bromophenyl)-N-(N,N-dimethylsulfamoyl)-1,8b-dihydroxy-6,8-dimethoxy-3-phenyl-2,3,3a,8b-tetrahydro-1H-cyclopenta[b]benzofuran-2-carboxamide]
Emax (GBM0308 CSCs; [1]): 93% | EC50 (GBM0308 CSCs; [2]): 0.045 µM | Emax (GBM0308 non-CSCs; [3]): 26%

COc1ccc([C@@]23Oc4cc(OC)cc(OC)c4[C@]2(O)[C@H](O)[C@H](C(=O)O)[C@H]3c2ccccc2)cc1 [(−)-10, rocaglaic acid]
CSCs Max. observed efficacy (% dead cells) (GBM0308 CSCs; [4]): 68% | Non-CSCs Max. observed efficacy (% dead cells) (GBM0308 non-CSCs; [5]): 27%

COc1cc(OC)c2c(c1)O[C@@]1(c3ccc(Br)cc3)[C@H](c3ccccc3)[C@@H](C(=O)NS(=O)(=O)N(C)C)[C@@H](O)[C@@]21O (racemic) [BUCMD747 (rac), (1R,2R,3S,3aR,8bS)-3a-(4-bromophenyl)-N-(N,N-dimethylsulfamoyl)-1,8b-dihydroxy-6,8-dimethoxy-3-phenyl-2,3,3a,8b-tetrahydro-1H-cyclopenta[b]benzofuran-2-carboxamide]
Emax (GBM0308 CSCs; [1]): 89% | EC50 (GBM0308 CSCs; [2]): 0.453 µM | Emax (GBM0308 non-CSCs; [3]): 27%

COc1cc(OC)c2c(c1)O[C@@]1(c3ccc(Br)cc3)[C@H](c3ccccc3)[C@@H](C(=O)O)[C@@H](O)[C@@]21O [(−)-11]
CSCs Max. observed efficacy (% dead cells) (GBM0308 CSCs; [4]): 92% | EC50 (GBM0308 CSCs; Table 2, GBM0308 CSCs, 72 h treatment, relative EC50, read-out: CSCs EC50): 0.121 µM | Non-CSCs Max. observed efficacy (% dead cells) (GBM0308 non-CSCs; [5]): 25%

COc1cc(OC)c2c(c1)O[C@@]1(c3ccc(Br)cc3)[C@H](c3ccccc3)[C@@H](C(=O)NS(C)(=O)=O)[C@@H](O)[C@@]21O [(−)-19, (1R,2R,3S,3aR,8bS)-3a-(4-bromophenyl)-1,8b-dihydroxy-6,8-dimethoxy-N-(methylsulfonyl)-3-phenyl-2,3,3a,8b-tetrahydro-1H-cyclopenta[b]benzofuran-2-carboxamide]
EC50 (GBM0308 CSCs; [6]): 0.095 µM | Emax (GBM0308 CSCs; [7]): 92% | EC50 (GBM0308 CSCs; Homo sapiens, read-out: CSC EC50, text, GBM0308 CSCs): < 0.125 µM | Emax (GBM0308 non-CSCs; [8]): 20%

COc1ccc([C@@]23Oc4cc(OC)cc(OC)c4[C@]2(O)[C@H](O)[C@H](C(=O)NS(C)(=O)=O)[C@H]3c2ccccc2)cc1 [(−)-15, (1R,2R,3S,3aR,8bS)-1,8b-dihydroxy-6,8-dimethoxy-3a-(4-methoxyphenyl)-N-(methylsulfonyl)-3-phenyl-2,3,3a,8b-tetrahydro-1H-cyclopenta[b]benzofuran-2-carboxamide]
EC50 (GBM0308 CSCs; [6]): 1 to 10 µM | Emax (GBM0308 CSCs; [7]): 85% | EC50 (GBM0308 CSCs; [9]): 0.98 µM | Emax (GBM0308 non-CSCs; [8]): 19%

COc1cc(OC)c2c(c1)O[C@@]1(c3ccc(Br)cc3)[C@H](c3ccccc3)[C@@H](C(=O)NS(=O)(=O)N3CCCC3)[C@@H](O)[C@@]21O [ZW-12-37, (1R,2R,3S,3aR,8bS)-3a-(4-bromophenyl)-1,8b-dihydroxy-6,8-dimethoxy-3-phenyl-N-(pyrrolidin-1-ylsulfonyl)-2,3,3a,8b-tetrahydro-1H-cyclopenta[b]benzofuran-2-carboxamide]
Emax (GBM0308 CSCs; [10]): 95% | EC50 (GBM0308 CSCs; [11]): 0.7 µM | Emax (GBM0308 non-CSCs; [12]): 25% | EC50 (GBM0308 non-CSCs): 0.401 µM

methyl rocaglate [(−)-3, reference compound]
CSCs Max. observed efficacy (% dead cells) (GBM0308 CSCs; [13]): 75% | EC50 (GBM0308 CSCs; [14]): 1.64 µM | Non-CSCs Max. observed efficacy (% dead cells) (GBM0308 non-CSCs; [15]): 23%

C#CCNS(=O)(=O)NC(=O)[C@H]1[C@@H](O)[C@@]2(O)c3c(OC)cc(OC)cc3O[C@@]2(c2ccc(Br)cc2)[C@@H]1c1ccccc1 [(−)-21, (1R,2R,3S,3aR,8bS)-3a-(4-bromophenyl)-1,8b-dihydroxy-6,8-dimethoxy-3-phenyl-N—(N-(prop-2-yn-1-yl)sulfamoyl)-2,3,3a,8b-tetrahydro-1H-cyclopenta[b]benzofuran-2-carboxamide]
EC50 (GBM0308 CSCs; [6]): 0.016 µM | Emax (GBM0308 CSCs; [7]): 92% | Emax (GBM0308 non-CSCs; [8]): 27%

COc1cc(OC)c2c(c1)O[C@@]1(c3ccc(Br)cc3)[C@H](c3ccccc3)[C@@H](C(=O)NS(=O)(=O)N(C)C(C)C)[C@@H](O)[C@@]21O [ZW-12-34, (1R,2R,3S,3aR,8bS)-3a-(4-bromophenyl)-1,8b-dihydroxy-N—(N-isopropyl-N-methylsulfamoyl)-6,8-dimethoxy-3-phenyl-2,3,3a,8b-tetrahydro-1H-cyclopenta[b]benzofuran-2-carboxamide]
Emax (GBM0308 CSCs; [10]): 79% | EC50 (GBM0308 CSCs; [11]): 1.85 µM | Emax (GBM0308 non-CSCs; [12]): 18%

COc1cc(OC)c2c(c1)O[C@@]1(c3ccc(Cl)cc3)[C@H](c3ccccc3)[C@@H](C(=O)NS(=O)(=O)N(C)C)[C@@H](O)[C@@]21O [ZW-12-31, (1R,2R,3S,3aR,8bS)-3a-(4-chlorophenyl)-N—(N,N-dimethylsulfamoyl)-1,8b-dihydroxy-6,8-dimethoxy-3-phenyl-2,3,3a,8b-tetrahydro-1H-cyclopenta[b]benzofuran-2-carboxamide]
Emax (GBM0308 CSCs; [10]): 72% | EC50 (GBM0308 CSCs; [11]): 0.693 µM | Emax (GBM0308 non-CSCs; [12]): 25%

COc1cc(OC)c2c(c1)O[C@@]1(c3ccc(Br)cc3)[C@H](c3ccccc3)[C@@H](C(=O)NS(=O)(=O)N3CC(C)C3)[C@@H](O)[C@@]21O [ZW-12-36, (1R,2R,3S,3aR,8bS)-3a-(4-bromophenyl)-1,8b-dihydroxy-6,8-dimethoxy-N-((3-methylazetidin-1-yl)sulfonyl)-3-phenyl-2,3,3a,8b-tetrahydro-1H-cyclopenta[b]benzofuran-2-carboxamide]
Emax (GBM0308 CSCs; [10]): 96% | EC50 (GBM0308 CSCs; [11]): 0.804 µM | Emax (GBM0308 non-CSCs; [12]): 11%

COC(=O)[C@H]1[C@@H](O)[C@@]2(O)c3c(OC)cc(OC)cc3O[C@@]2(c2ccc(Br)cc2)[C@@H]1c1ccccc1 [(−)-9, reference compound]
CSCs Max. observed efficacy (% dead cells) (GBM0308 CSCs; [13]): 88% | EC50 (GBM0308 CSCs; [14]): 0.151 µM | Non-CSCs Max. observed efficacy (% dead cells) (GBM0308 non-CSCs; [15]): 25%

COc1cc(OC)c2c(c1)O[C@@]1(c3ccc(Br)cc3)[C@H](c3ccccc3)[C@@H](C(=O)NS(=O)(=O)N3CCOCC3)[C@@H](O)[C@@]21O [ZW-12-38, (1R,2R,3S,3aR,8bS)-3a-(4-bromophenyl)-1,8b-dihydroxy-6,8-dimethoxy-N-(morpholinosulfonyl)-3-phenyl-2,3,3a,8b-tetrahydro-1H-cyclopenta[b]benzofuran-2-carboxamide]
Emax (GBM0308 CSCs; [10]): 95% | EC50 (GBM0308 CSCs; [11]): 0.7 µM | Emax (GBM0308 non-CSCs; [12]): 19% | EC50 (GBM0308 non-CSCs): 0.463 µM

COc1ccc([C@@]23Oc4cc(OC)cc(OC)c4[C@]2(O)[C@H](O)[C@H](C(=O)NS(=O)(=O)N(C)C)[C@H]3c2ccccc2)cc1 [(−)-16, (1R,2R,3S,3aR,8bS)—N—(N,N-dimethylsulfamoyl)-1,8b-dihydroxy-6,8-dimethoxy-3a-(4-methoxyphenyl)-3-phenyl-2,3,3a,8b-tetrahydro-1H-cyclopenta[b]benzofuran-2-carboxamide]
EC50 (GBM0308 CSCs; [6]): 1 to 10 µM | Emax (GBM0308 CSCs; [7]): 76% | EC50 (GBM0308 CSCs; [9]): 1.73 µM | Emax (GBM0308 non-CSCs; [8]): 23%
